In a compilation of properties of binary mixtures (doi:10.1016/j.molliq.2005.06.001):

Assay: xn = mol fraction of the nth substance listed
Conditions: 298 K, 101 kPa

CCCn1cc[n+](C)c1.[Br-] + CC1COC(=O)O1
Conditions	electrical conductivity [S/m]
x1 = 0.004	0.09
x2 = 0	0.03
x2 = 0.19	0.07
x2 = 0.27	0.09
x2 = 0.38	0.15
x2 = 0.46	0.26
x2 = 0.49	0.26
x2 = 0.55	0.42
x2 = 0.61	0.47
x2 = 0.76	0.59
x2 = 0.82	0.69
x2 = 0.89	0.73
x2 = 0.93	0.63
x2 = 0.96	0.49

CC[n+]1ccn(C)c1.F[B-](F)(F)F + CC1COC(=O)O1
Conditions	electrical conductivity [S/m]
x1 = 0.001	0.05
x2 = 0	1.39
x2 = 0.37	1.73
x2 = 0.55	1.85
x2 = 0.65	1.87
x2 = 0.75	1.8
x2 = 0.95	0.99

CNC=O + CC[n+]1ccn(C)c1.F[B-](F)(F)F
Conditions	electrical conductivity [S/m]
x1 = 0.05	1.59
x1 = 0.11	1.79
x1 = 0.31	2.26
x1 = 0.57	2.97
x1 = 0.72	3.15
x1 = 0.78	3.26
x1 = 0.86	3.05
x1 = 0.91	2.62
x2 = 0.001	0.34

Cn1ccnc1 + CC[n+]1ccn(C)c1.F[B-](F)(F)F
Conditions	electrical conductivity [S/m]
x1 = 0.1	1.67
x1 = 0.19	1.72
x1 = 0.31	1.83
x1 = 0.41	1.91
x1 = 0.51	2.01
x1 = 0.61	2.11
x1 = 0.7	2.15
x1 = 0.8	2.12
x1 = 0.85	1.85
x1 = 0.9	1.7
x1 = 0.95	1.18
x2 = 0.003	0.14

CCCn1cc[n+](C)c1.[Br-] + O
Conditions	electrical conductivity [S/m]
x1 = 0.0002	0.16
x2 = 0	0.03
x2 = 0.22	0.155
x2 = 0.36	0.46
x2 = 0.51	1.22
x2 = 0.79	6.23
x2 = 0.96	8.92

CC[n+]1ccn(C)c1.F[B-](F)(F)F + O
Conditions	electrical conductivity [S/m]
x1 = 0.0001	0.08
x1 = 0.01	4.13
x2 = 0	1.39
x2 = 0.16	2.04
x2 = 0.34	2.92
x2 = 0.47	4.11
x2 = 0.66	6.17
x2 = 0.9	9.28
x2 = 0.92	8.78
x2 = 0.95	8.32
x2 = 0.97	6.32
